Calls of active or inactive are those of the source. The calls are words filed in the database; no cut-off is given here.
Legend:
Vasopressin V1a receptor [1] = molecular target: T1, Vasopressin V1a receptor (Rattus norvegicus, UniProt P30560); assay: Displacement of [3H]AVP from vasopressin V1a receptor in rat liver membrane by competitive displacement assay; type: cell membranes
Vasopressin V1a receptor [2] = molecular target: T1, Vasopressin V1a receptor; assay: Displacement of [3H]AVP from vasopressin V1a receptor in rat liver membrane; type: cell membranes
[3] = molecular target: Vasopressin V1a receptor (Rattus norvegicus) (UniProt P30560); assay: Displacement of [3H]AVP from vasopressin V1a receptor in rat liver membrane at 25 uM by competitive displacement assay; type: cell membranes
Chain of Vasopressin V1a receptor (Rattus norvegicus) (P30560 whole entry, looked up): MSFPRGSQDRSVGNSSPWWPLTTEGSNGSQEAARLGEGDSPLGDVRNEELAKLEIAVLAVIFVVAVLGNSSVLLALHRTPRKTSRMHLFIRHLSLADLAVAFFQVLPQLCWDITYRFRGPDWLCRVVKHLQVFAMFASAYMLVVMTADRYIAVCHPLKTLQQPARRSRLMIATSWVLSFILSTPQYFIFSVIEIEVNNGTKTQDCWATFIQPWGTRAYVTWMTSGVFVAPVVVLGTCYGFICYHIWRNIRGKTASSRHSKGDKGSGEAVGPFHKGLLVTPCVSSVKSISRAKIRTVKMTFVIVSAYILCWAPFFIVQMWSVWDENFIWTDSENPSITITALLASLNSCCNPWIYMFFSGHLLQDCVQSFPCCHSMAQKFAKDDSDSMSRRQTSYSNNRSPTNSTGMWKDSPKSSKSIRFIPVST

[4] = molecular target: Vasopressin V1a receptor (Rattus norvegicus) (UniProt P30560); assay: Displacement of [3H]AVP from vasopressin V1a receptor in rat liver membrane at 50 uM by competitive displacement assay; type: cell membranes
Vasopressin V1a receptor [5] = molecular target: Vasopressin V1a receptor (Homo sapiens, UniProt P37288); assay: Binding affinity to vasopressin V1a receptor
Chain of Vasopressin V1a receptor (Homo sapiens, UniProt P37288) (P37288 whole entry): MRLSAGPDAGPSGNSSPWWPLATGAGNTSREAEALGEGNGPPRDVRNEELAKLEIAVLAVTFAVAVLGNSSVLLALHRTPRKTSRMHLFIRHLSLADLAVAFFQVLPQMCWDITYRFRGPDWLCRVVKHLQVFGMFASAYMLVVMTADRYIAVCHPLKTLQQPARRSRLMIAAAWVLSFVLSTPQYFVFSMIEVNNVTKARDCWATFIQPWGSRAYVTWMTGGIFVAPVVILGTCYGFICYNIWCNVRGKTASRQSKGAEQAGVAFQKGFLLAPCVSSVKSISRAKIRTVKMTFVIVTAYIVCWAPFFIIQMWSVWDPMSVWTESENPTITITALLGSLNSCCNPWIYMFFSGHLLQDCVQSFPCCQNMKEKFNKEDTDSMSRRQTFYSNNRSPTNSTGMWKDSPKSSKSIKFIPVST

T1 sequence (P30560 whole entry): as the sequence (P30560 whole entry, looked up) above

Ki (Vasopressin V1a receptor [1]) [µM]	IC50 (Vasopressin V1a receptor [2]) [µM]	Ki (Vasopressin V1a receptor [2]) [µM]	inhibition [3]	inhibition [4]	SMILES	Ki (Vasopressin V1a receptor [5]) [µM]
53	125	41	Active	Active	C=C1[C@H]2CC[C@H](CO)[C@@]23CC[C@H](C3)C1(C)C [KHUSIMOL]	
					CC(=O)NCCCOc1ccc(C(=O)N2CCC(N3C(=O)CCc4ccccc43)CC2)cc1	0.35
